This data set is described as follows: Size and polydispersion of white homogenous nanospheres (quasi-elastic diffusion of light), physical stability over time. In kind it is physicochemical. The protocol:
The method used to prepare white homogenous nanospheres consists in introducing an organic phase of acetone (or tetrahydrofurane) and an amphiphilic cyclodextrin derivative from the invention (1 mg·mL^−1) in an aqueous phase of equivalent volume or a double volume (distilled water), under magnetic stirring (500 r.p.m.) at 25° C. After nanoprecipitation, the organic solvent is eliminated under reduced pressure at +35° C. The aqueous suspension presenting an opalescent to milky appearance (according to the products used) is then concentrated until the final volume desired is obtained, then filtered on a 0.8 μm filter (Millex AA, Millipore, France).
The colloid suspensions are then characterised as regards the granulometry (mean size and polydisperion) and, when they incorporate loaded amphiphilic cyclodextrins, by their zeta potential. The characterisation is carried out using the following methods:
The quasi-elastic diffusion of light is used. A Zetasizer 3000 apparatus equipped with a K7132 correlator (Malvern Instruments, RU) was used. The conditions for measurement are as follows: angle of detection 90°, temperature 25±0.1° C., apparent viscosity 0.89 mPa·s. Before measuring the size, samples are diluted in distilled water if necessary. The hydrodynamic diameter (mean Z) and polydispersion index (PI) of the nanoparticles in suspension are calculated in intensity by the cumulant method by carrying out 3 measurements on the same sample. The value of the hydrodynamic diameter is calculated using the measurement of the translational coefficient of diffusion of particles with Brownian movement. An NanoZS apparatus (Malvern Instruments) was also used to measure the size of the nanocapsules. In the same way, the samples are diluted before measurement, if necessary in water added to Montanox 80 (trade mark).
The studies on the physical stability of particles were carried out over periods ranging from 1 month to 8 months. The corresponding data for a series of amphiphilic cyclodextrins in the invention are indicated in Table 1 providing the granulometric characteristics (mean size and polydispersion index or mean PI), with evolution over time, of different homogenous nanospheres derived from the compounds indicated in the left column, the reference number for said compounds corresponding to those of the compounds described in the above examples.

The record followed here is US20100093662A1, “NOVEL AMPHIPHILIC CYCLODEXTRIN DERIVATIVES” (CENTRE NATIONAL DE LA RECHERCHE SCIENTIFIQUE-CNRS-, priority 2006, published 2010).

As to `CCCCCC(=O)O[C@@H]1[C@@H](OC(=O)CCCCC)[C@H]2O[C@H]3[C@H](OC(=O)CCCCC)[C@@H](OC(=O)CCCCC)[C@@H](O[C@H]4[C@H](OC(=O)CCCCC)[C@@H](OC(=O)CCCCC)[C@@H](O[C@H]5[C@H](OC(=O)CCCCC)[C@@H](OC(=O)CCCCC)[C@@H](O[C@H]6[C@H](OC(=O)CCCCC)[C@@H](OC(=O)CCCCC)[C@@H](O[C@H]7[C@H](OC(=O)CCCCC)[C@@H](OC(=O)CCCCC)[C@@H](O[C@H]8[C@H](OC(=O)CCCCC)[C@@H](OC(=O)CCCCC)[C@@H](O[C@@H]1[C@@H](CN=[N+]=[N-])O2)O[C@@H]8CN=[N+]=[N-])O[C@@H]7CN=[N+]=[N-])O[C@@H]6CN=[N+]=[N-])O[C@@H]5CN=[N+]=[N-])O[C@@H]4CN=[N+]=[N-])O[C@@H]3CN=[N+]=[N-]` [compound no. 3, heptakis(6-azido-6-desoxy-2,3-di-O-hexanoyl)cyclomaltoheptaose], under “3 months”, the “IP (polydispersion index)” value is 0.06 and the “Mean size ± standard deviation (n = 3)” value came to 157 ± 8 nm. Further, where the note is “6 months”, the “IP (polydispersion index)” value was determined as 0.18 and the “Mean size ± standard deviation (n = 3)” value came to 206 ± 17 nm. Under “initial”, the “Mean size ± standard deviation (n = 3)” value is given as 181 ± 5 nm and the “PI (polydispersion index)” value came to 0.08.

Consider `CCCCCC(=O)O[C@@H]1[C@@H](OC(=O)CCCCC)[C@H]2O[C@H]3[C@H](OC(=O)CCCCC)[C@@H](OC(=O)CCCCC)[C@@H](O[C@H]4[C@H](OC(=O)CCCCC)[C@@H](OC(=O)CCCCC)[C@@H](O[C@H]5[C@H](OC(=O)CCCCC)[C@@H](OC(=O)CCCCC)[C@@H](O[C@H]6[C@H](OC(=O)CCCCC)[C@@H](OC(=O)CCCCC)[C@@H](O[C@H]7[C@H](OC(=O)CCCCC)[C@@H](OC(=O)CCCCC)[C@@H](O[C@H]8[C@H](OC(=O)CCCCC)[C@@H](OC(=O)CCCCC)[C@@H](O[C@@H]1[C@@H](CSCCNC(=O)OC(C)(C)C)O2)O[C@@H]8CSCCNC(=O)OC(C)(C)C)O[C@@H]7CSCCNC(=O)OC(C)(C)C)O[C@@H]6CSCCNC(=O)OC(C)(C)C)O[C@@H]5CSCCNC(=O)OC(C)(C)C)O[C@@H]4CSCCNC(=O)OC(C)(C)C)O[C@@H]3CSCCNC(=O)OC(C)(C)C` [compound no. 7, heptakis[6-(2-tert-butoxycarbonylaminoethylthio)-6-desoxy-2,3-di-0-hexanoyl]cyclomaltoheptaose], for which, under “8 months”, the “Mean size ± standard deviation (n = 3)” value is 194 ± 2 nm and the “PI (polydispersion index)” value is 0.02. In addition, for the setting “initial”, the “Mean size ± standard deviation (n = 3)” value is 283 ± 29 nm and the “PI (polydispersion index)” value is 0.06.

With `CCCCCCCCCCCCCC(=O)O[C@@H]1[C@@H](OC(=O)CCCCCCCCCCCCC)[C@H]2O[C@H]3[C@H](OC(=O)CCCCCCCCCCCCC)[C@@H](OC(=O)CCCCCCCCCCCCC)[C@@H](O[C@H]4[C@H](OC(=O)CCCCCCCCCCCCC)[C@@H](OC(=O)CCCCCCCCCCCCC)[C@@H](O[C@H]5[C@H](OC(=O)CCCCCCCCCCCCC)[C@@H](OC(=O)CCCCCCCCCCCCC)[C@@H](O[C@H]6[C@H](OC(=O)CCCCCCCCCCCCC)[C@@H](OC(=O)CCCCCCCCCCCCC)[C@@H](O[C@H]7[C@H](OC(=O)CCCCCCCCCCCCC)[C@@H](OC(=O)CCCCCCCCCCCCC)[C@@H](O[C@H]8[C@H](OC(=O)CCCCCCCCCCCCC)[C@@H](OC(=O)CCCCCCCCCCCCC)[C@@H](O[C@@H]1[C@@H](CI)O2)O[C@@H]8CI)O[C@@H]7CI)O[C@@H]6CI)O[C@@H]5CI)O[C@@H]4CI)O[C@@H]3CI` [compound no. 4, heptakis(6-desoxy-6-iodo-2,3-di-O-myristoyl)cyclomaltoheptaose], where the note is “3 months”, the “IP (polydispersion index)” value worked out at 0.03 and the “Mean size ± standard deviation (n = 3)” value worked out at 206 ± 20 nm. For the same compound, under “6 months”, the “IP (polydispersion index)” value was determined as 0.06 and the “Mean size ± standard deviation (n = 3)” value came out at 227 ± 26 nm. Where the note is “initial”, the “Mean size ± standard deviation (n = 3)” value is reported as 217 ± 17 nm and the “PI (polydispersion index)” value is 0.04.

Turning to `CCCCCC(=O)O[C@@H]1[C@@H](OC(=O)CCCCC)[C@H]2O[C@H]3[C@H](OC(=O)CCCCC)[C@@H](OC(=O)CCCCC)[C@@H](O[C@H]4[C@H](OC(=O)CCCCC)[C@@H](OC(=O)CCCCC)[C@@H](O[C@H]5[C@H](OC(=O)CCCCC)[C@@H](OC(=O)CCCCC)[C@@H](O[C@H]6[C@H](OC(=O)CCCCC)[C@@H](OC(=O)CCCCC)[C@@H](O[C@H]7[C@H](OC(=O)CCCCC)[C@@H](OC(=O)CCCCC)[C@@H](O[C@H]8[C@H](OC(=O)CCCCC)[C@@H](OC(=O)CCCCC)[C@@H](O[C@@H]1[C@@H](CSCCN=C=S)O2)O[C@@H]8CSCCN=C=S)O[C@@H]7CSCCN=C=S)O[C@@H]6CSCCN=C=S)O[C@@H]5CSCCN=C=S)O[C@@H]4CSCCN=C=S)O[C@@H]3CSCCN=C=S` [compound no. 9, heptakis[6-desoxy-2,3-di-0-hexanoyl-6-(2-isothiocyanatoethylthio)]cyclomaltoheptaose], where the note is “3 months”, the “IP (polydispersion index)” value is recorded as 0.09 and the “Mean size ± standard deviation (n = 3)” value amounted to 138 ± 2 nm. In addition, for the setting “initial”, the “Mean size ± standard deviation (n = 3)” value is given as 123 ± 2 nm and the “PI (polydispersion index)” value was determined as 0.03.

Regarding “heptakis(6-azido-6-desoxy-2,3-di-0-myristoyl)cyclomaltoheptaose [compound no. 6]”, under “3 months”, the “IP (polydispersion index)” value was 0.06 and the “Mean size ± standard deviation (n = 3)” value is 157 ± 8 nm. Moreover, where the note is “6 months”, the “IP (polydispersion index)” value amounted to 0.04 and the “Mean size ± standard deviation (n = 3)” value was 198 ± 12 nm. For the same compound, where the note is “initial”, the “Mean size ± standard deviation (n = 3)” value worked out at 171 ± 9 nm and the “PI (polydispersion index)” value stood at 0.03.

With `CCCCCCCCCCCCCC(=O)O[C@@H]1[C@@H](OC(=O)CCCCCCCCCCCCC)[C@H]2O[C@H]3[C@H](OC(=O)CCCCCCCCCCCCC)[C@@H](OC(=O)CCCCCCCCCCCCC)[C@@H](O[C@H]4[C@H](OC(=O)CCCCCCCCCCCCC)[C@@H](OC(=O)CCCCCCCCCCCCC)[C@@H](O[C@H]5[C@H](OC(=O)CCCCCCCCCCCCC)[C@@H](OC(=O)CCCCCCCCCCCCC)[C@@H](O[C@H]6[C@H](OC(=O)CCCCCCCCCCCCC)[C@@H](OC(=O)CCCCCCCCCCCCC)[C@@H](O[C@H]7[C@H](OC(=O)CCCCCCCCCCCCC)[C@@H](OC(=O)CCCCCCCCCCCCC)[C@@H](O[C@H]8[C@H](OC(=O)CCCCCCCCCCCCC)[C@@H](OC(=O)CCCCCCCCCCCCC)[C@@H](O[C@@H]1[C@@H](CBr)O2)O[C@@H]8CBr)O[C@@H]7CBr)O[C@@H]6CBr)O[C@@H]5CBr)O[C@@H]4CBr)O[C@@H]3CBr` [compound no. 5, heptakis(6-bromo-6-desoxy-2,3-di-O-myristoyl)cyclomaltoheptaose], where the note is “3 months”, the “IP (polydispersion index)” value is listed as 0.05 and the “Mean size ± standard deviation (n = 3)” value came out at 232 ± 22 nm. Where the note is “6 months”, the “IP (polydispersion index)” value came out at 0.03 and the “Mean size ± standard deviation (n = 3)” value was 242 ± 27 nm. In addition, under “initial”, the “Mean size ± standard deviation (n = 3)” value is on record as 244 ± 13 nm and the “PI (polydispersion index)” value was found to be 0.13.

With `CCCCCC(=O)O[C@@H]1[C@@H](OC(=O)CCCCC)[C@H]2O[C@H]3[C@H](OC(=O)CCCCC)[C@@H](OC(=O)CCCCC)[C@@H](O[C@H]4[C@H](OC(=O)CCCCC)[C@@H](OC(=O)CCCCC)[C@@H](O[C@H]5[C@H](OC(=O)CCCCC)[C@@H](OC(=O)CCCCC)[C@@H](O[C@H]6[C@H](OC(=O)CCCCC)[C@@H](OC(=O)CCCCC)[C@@H](O[C@H]7[C@H](OC(=O)CCCCC)[C@@H](OC(=O)CCCCC)[C@@H](O[C@H]8[C@H](OC(=O)CCCCC)[C@@H](OC(=O)CCCCC)[C@@H](O[C@@H]1[C@@H](CBr)O2)O[C@@H]8CBr)O[C@@H]7CBr)O[C@@H]6CBr)O[C@@H]5CBr)O[C@@H]4CBr)O[C@@H]3CBr` [compound no. 2, heptakis(6-bromo-6-desoxy-2,3-di-O-hexanoyl)cyclomaltoheptaose], for the setting “8 months”, the “Mean size ± standard deviation (n = 3)” value is recorded as 182 ± 22 nm and the “PI (polydispersion index)” value turned out to be 0.01. In addition, where the note is “initial”, the “Mean size ± standard deviation (n = 3)” value was found to be 238 ± 29 nm and the “PI (polydispersion index)” value was determined as 0.02.

In the case of “heptakis[6-desoxy-2,3-di-0-myristoyl-6-(2-isothiocyanatoethylthio)]cyclomaltoheptaose [compound no. 12]”, where the note is “initial”, the “Mean size ± standard deviation (n = 3)” value came out at 72 ± 32 nm and the “PI (polydispersion index)” value was 0.31.

For the compound “heptakis[6-(2-tert-butoxycarbonylaminoethylthio)-6-desoxy-2,3-di-O-myristoyl]cyclomaltoheptaose [compound no. 10]”, for the setting “3 months”, the “IP (polydispersion index)” value is on record as 0.07 and the “Mean size ± standard deviation (n = 3)” value came to 207 ± 1 nm. For the same compound, for the setting “6 months”, the “IP (polydispersion index)” value is listed as 0.32 and the “Mean size ± standard deviation (n = 3)” value was 269 ± 64 nm. Besides, under “initial”, the “Mean size ± standard deviation (n = 3)” value is reported as 212 ± 14 nm and the “PI (polydispersion index)” value is reported as 0.11.
